Laboratory results: ChEMBL document CHEMBL1135772, “Conformationally constrained nicotines: polycyclic, bridged, and spiro-annulated analogues as novel ligands for the nicotinic acetylcholine receptor” (J Med Chem, 2002)

Target: Neuronal acetylcholine receptor; alpha4/beta2 (Rattus norvegicus, UniProt P09483+P12390)
Assay: Displacement of [3H]cytisine from Nicotinic acetylcholine receptor alpha4-beta2 in rat forebrain

Sequence of Neuronal acetylcholine receptor; alpha4/beta2 (P09483 whole entry): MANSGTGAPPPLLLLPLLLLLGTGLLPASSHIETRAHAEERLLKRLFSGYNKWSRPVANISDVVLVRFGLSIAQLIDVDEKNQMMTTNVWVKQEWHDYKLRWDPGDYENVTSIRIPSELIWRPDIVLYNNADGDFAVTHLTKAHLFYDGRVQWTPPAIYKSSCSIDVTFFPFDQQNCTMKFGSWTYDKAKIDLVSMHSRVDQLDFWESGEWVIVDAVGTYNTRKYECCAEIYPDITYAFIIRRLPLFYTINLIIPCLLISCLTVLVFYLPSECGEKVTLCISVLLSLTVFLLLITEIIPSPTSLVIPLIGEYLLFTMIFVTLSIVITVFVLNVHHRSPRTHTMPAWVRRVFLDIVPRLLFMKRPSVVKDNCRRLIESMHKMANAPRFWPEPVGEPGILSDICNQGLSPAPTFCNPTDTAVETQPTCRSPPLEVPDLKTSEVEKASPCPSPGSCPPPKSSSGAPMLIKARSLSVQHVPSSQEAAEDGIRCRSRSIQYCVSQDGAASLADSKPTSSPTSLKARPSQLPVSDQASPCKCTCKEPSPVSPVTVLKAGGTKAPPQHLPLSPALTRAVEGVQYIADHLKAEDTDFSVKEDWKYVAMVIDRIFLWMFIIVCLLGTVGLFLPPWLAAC
Sequence of Neuronal acetylcholine receptor; alpha4/beta2 (P12390 whole entry): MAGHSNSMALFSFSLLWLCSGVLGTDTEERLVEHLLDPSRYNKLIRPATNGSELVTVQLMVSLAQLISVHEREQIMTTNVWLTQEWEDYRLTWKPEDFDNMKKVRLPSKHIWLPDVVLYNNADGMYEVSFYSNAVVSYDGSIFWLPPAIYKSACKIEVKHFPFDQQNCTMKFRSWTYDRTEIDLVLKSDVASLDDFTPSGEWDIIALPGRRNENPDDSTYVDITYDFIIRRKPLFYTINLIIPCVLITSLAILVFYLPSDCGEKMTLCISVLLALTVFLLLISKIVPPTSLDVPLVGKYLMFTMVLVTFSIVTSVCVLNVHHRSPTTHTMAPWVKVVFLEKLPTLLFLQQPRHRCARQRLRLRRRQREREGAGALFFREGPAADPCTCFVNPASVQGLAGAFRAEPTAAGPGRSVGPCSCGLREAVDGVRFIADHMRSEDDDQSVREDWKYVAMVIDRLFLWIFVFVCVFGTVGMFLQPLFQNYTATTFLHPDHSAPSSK

SMILES | Ki
c1cncc(C2C3CCN2CC3)c1 (single isomer, unassigned; (-)) | 1.89 nM
c1cc2c(cn1)C1N3CCCC1(CC3)C2 (stereo in doubt; (-)4b) | 1040 nM
CN1CCC[C@@]12CCc1ccncc12 | 148 nM
c1cncc(C2C3CCN2CC3)c1 (stereo in doubt; 3 (+)) | 2.32 nM
CN1CCC[C@]12CCc1ccncc12 | 4.79 nM
c1cc2c(cn1)[C@H]1N3CCC1(CC3)C2 | 962 nM
c1cc2c(cn1)C1N3CCCC1(CC3)C2 (stereo in doubt; (+)4b) | 318 nM
c1cc2c(cn1)[C@]1(CCCN1)CC2 | 533 nM
c1cc2c(cn1)[C@@]1(CCCN1)CC2 | 53.1 nM
